Laboratory results: publication PMC3702509, “Label Free Fragment Screening Using Surface Plasmon Resonance as a Tool for Fragment Finding – Analyzing Parkin, a Difficult CNS Target” (PLoS ONE, 2013)

Legend:
[1] = target: T1, FL-FLAG-Parkin RT (non-thermal treated) (Homo sapiens, UniProt O60260); assay: SPR kinetics/affinity on non-thermal treated FL-FLAG Parkin captured by anti-FLAG antibody; type: binding; settings: for direct binding of reducing agent by SPR: non-thermal treated Parkin
T1 construct: the entire coding region (residues 1–465) from NM_004562.1 was cloned into pFastBac; made in house; host or cells: Sf9 or Sf21 insect cells (baculovirus)
T1 sequence (O60260 1-465): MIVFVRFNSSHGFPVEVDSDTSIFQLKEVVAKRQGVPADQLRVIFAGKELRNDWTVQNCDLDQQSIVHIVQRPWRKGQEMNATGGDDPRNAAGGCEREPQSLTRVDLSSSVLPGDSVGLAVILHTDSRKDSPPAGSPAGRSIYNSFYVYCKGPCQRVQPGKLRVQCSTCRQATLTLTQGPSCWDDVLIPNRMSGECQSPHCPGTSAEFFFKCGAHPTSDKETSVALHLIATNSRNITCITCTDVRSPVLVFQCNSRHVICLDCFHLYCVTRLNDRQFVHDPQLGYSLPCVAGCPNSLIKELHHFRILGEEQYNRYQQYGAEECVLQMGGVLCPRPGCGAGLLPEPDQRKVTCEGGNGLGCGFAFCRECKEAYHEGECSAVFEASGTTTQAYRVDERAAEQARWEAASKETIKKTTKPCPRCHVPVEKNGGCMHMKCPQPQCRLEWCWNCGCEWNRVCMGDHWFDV
Procedure: Kinetics and Affinity measurements were performed on a GE Healthcare Biacore T100 or T200 instrument. Anti-FLAG antibody M2 was immobilized on a CM5 sensor chip using standard amine coupling procedure at a concentration of 100 μg/ml to a level of 10000 response units (RU). […] Flow cell 2 contained antibody only to control for non-specific binding of fragments to the antibody, and flow cells 3 and 4 contained antibody and captured Parkin. Untagged Parkin domain R0RBR was immobilized by amine coupling at a concentration of 100 μg/ml in 10 mM acetic acid pH 5.0 using the same running buffer as for anti-FLAG antibody immobilization. […]
(§1) The flow rate was 30μl/min. The time-dependent binding curves were monitored simultaneously. The surfaces were then regenerated after each binding experiment by washing the surfaces with an injection of running buffer. Kinetics and affinity experiments were repeated at least twice at two different test occasions.
(§2) Kinetic and affinity data were solvent corrected (fragments only), reference subtracted and blank subtracted using the Biacore T200 evaluation software V.1. Kinetic constants were determined by curve fitting using a 1∶1 binding model. Association and dissociation curves were fitted globally or locally. The rate of complex formation (1∶1 interaction) during fragment injection was calculated according to the equation (2): [drawing 2] (2) where R is the SPR signal in response units (RU), C is the concentration of analyte, Rmax is the maximum analyte binding capacity in RU, dR/dt is the rate of SPR signal change. To determine the association constant ka between fragment and protein, the early binding phase was used. The dissociation phase kd was measured using the rate of decline in RU after the injection stop, when free running buffer is flowing over the surface. Data were simultaneously fitted by the software and the dissociation constant KD calculated using equation (3). [drawing 3] (3) Ligand efficiency (LE, Δg) was calculated as the binding energy of ligand per atom (equation 4) [drawing 4] (4) where Nh is the number of heavy (i.e., non-hydrogen) atoms in the ligand.
The dissociation half-life (t1/2) was calculated by equation (5). [drawing 5] (5)

[2] = target: T2, FL-FLAG-Parkin 56°C (thermal treated) (Homo sapiens, UniProt O60260); assay: SPR kinetics/affinity on thermal treated FL-FLAG Parkin captured by anti-FLAG antibody; type: binding
T2 construct: the entire coding region (residues 1–465) from NM_004562.1 was cloned into pFastBac; made in house; host or cells: Sf9 or Sf21 insect cells (baculovirus)
T2 sequence (O60260 1-465): T1 sequence (O60260 1-465)
Procedure: Kinetics and Affinity measurements were performed on a GE Healthcare Biacore T100 or T200 instrument. Anti-FLAG antibody M2 was immobilized on a CM5 sensor chip using standard amine coupling procedure at a concentration of 100 μg/ml to a level of 10000 response units (RU). […] The running buffer for both methods was 10 mM HEPES pH 7.4, 150 mM NaCl, 0.005% Tween-20, 4 mM reducing agent. […] Flow cell 2 contained antibody only to control for non-specific binding of fragments to the antibody, and flow cells 3 and 4 contained antibody and captured Parkin. Untagged Parkin domain R0RBR was immobilized by amine coupling at a concentration of 100 μg/ml in 10 mM acetic acid pH 5.0 using the same running buffer as for anti-FLAG antibody immobilization. The surface was then washed with 10 mM HEPES pH 7.4, 150 mM NaCl, 0.005% Tween-20, 4 mM reducing agent for at least one hour.
as §1
as §2, with “(2) where R is the SPR signal in response units (RU), C is the concentration of analyte, Rmax is the maximum analyte binding capacity in RU, dR/dt is the rate of SPR signal change. To determine the association constant ka between fragment and protein, the early binding phase was used.” left out, “[drawing 3]” left out, “(4) where Nh is the number of heavy (i.e., non-hydrogen) atoms in the ligand.” left out
The dissociation half-life (t1/2) was calculated by equation (5). […]

FL-FLAG Parkin [3] = target: T3, FL-FLAG Parkin (Homo sapiens, UniProt O60260); assay: S5a ubiquitination HTRF (TR-FRET) assay; type: biochemical; settings: Parkin heated at 56°C in presence of reducing agent; DTT at optimal 5–10 mM
T3 construct: the entire coding region (residues 1–465) from NM_004562.1 was cloned into pFastBac; made in house; host or cells: Sf9 or Sf21 insect cells (baculovirus)
T3 sequence (O60260 1-465): T1 sequence (O60260 1-465)
Procedure: FL FLAG-Parkin (35 μM stock) was thermally treated by incubating at 56°C for 30 min. The thermally treated FL FLAG-Parkin stock was stored at −80 C. 5 μl of thermally treated or non-treated FLAG-Parkin diluted in assay buffer was added to wells of a 384-well non-binding plate. […] The reaction was allowed to proceed for 120 min at 30°C. 10 μl of stop-detection mix was added to a final concentration of 75 nM streptavidin XL665 conjugate, 12 mM EDTA in buffer containing 100 mM Na2HPO4 pH 7.0, 300 mM KF, and 0.1% BSA. The 20 μl reaction mixture was incubated for 60 min at room temperature. HTRF read using a LJL Analyst plate reader (Molecular Devices) at excitation 320 nm and emission 665 nm & 615 nm.

R0RBR Domain RT = target: T4, R0RBR Domain RT (Homo sapiens, UniProt O60260); assay: SPR kinetics/affinity on amine-coupled Parkin R0RBR domain; type: binding; settings: read-out: Affinities KD of protein ligands
T4 construct: DNA encoding residues 141–465 of Parkin (NM_004562.1) were cloned into the Champion pET SUMO vector; SUMO (His-SUMO of the Champion pET SUMO vector) (N, cleaved yes); made in house; host or cells: E. coli BL21 DE3
T4 sequence (O60260 141-465): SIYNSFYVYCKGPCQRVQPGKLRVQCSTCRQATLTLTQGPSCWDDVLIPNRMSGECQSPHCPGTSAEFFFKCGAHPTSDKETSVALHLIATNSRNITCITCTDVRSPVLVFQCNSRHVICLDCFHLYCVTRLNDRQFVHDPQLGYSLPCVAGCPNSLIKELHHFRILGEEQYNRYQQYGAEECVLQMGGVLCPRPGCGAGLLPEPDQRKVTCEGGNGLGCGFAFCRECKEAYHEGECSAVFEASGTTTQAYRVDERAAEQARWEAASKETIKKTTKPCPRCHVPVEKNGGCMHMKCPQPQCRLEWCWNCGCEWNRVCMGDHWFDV
Procedure: Kinetics and Affinity measurements were performed on a GE Healthcare Biacore T100 or T200 instrument. Anti-FLAG antibody M2 was immobilized on a CM5 sensor chip using standard amine coupling procedure at a concentration of 100 μg/ml to a level of 10000 response units (RU). Monomeric non-thermal treated FL-Parkin or thermal treated FL-Parkin was captured in 10 mM acetic acid pH 4.5 to levels of up to 16000 RU. The running buffer for both methods was 10 mM HEPES pH 7.4, 150 mM NaCl, 0.005% Tween-20, 4 mM reducing agent. Typically, the 4 flow cells of the sensor chips were used as follows: flow cell 1 served as a reference and was activated and deactivated. […]
To test binding of reducing agents in the absence of small molecules, the reducing agents were diluted and injected in buffer without reducing agents for 180 sec and a dissociation phase of 600 sec. […] The time-dependent binding curves were monitored simultaneously. […]
Kinetic and affinity data were solvent corrected (fragments only), reference subtracted and blank subtracted using the Biacore T200 evaluation software V.1. Kinetic constants were determined by curve fitting using a 1∶1 binding model. […] The rate of complex formation (1∶1 interaction) during fragment injection was calculated according to the equation (2): [drawing 2] […] Data were simultaneously fitted by the software and the dissociation constant KD calculated using equation (3). […]

FL-FLAG Parkin [4] = target: T3, FL-FLAG Parkin; assay: STD NMR binding to FL-FLAG-Parkin; settings: 4 µM FL Parkin, 0.5 mM DTT, 0.25 mM compound Z, signal at 2.6 ppm
Procedure: All NMR experiments were conducted at 15°C on a Bruker Avance 700 MHz spectrometer equipped with a 5 mm TCI cryo-probe. 3 mm NMR tubes were used for reducing the protein consumption. […] The compound concentration was 0.25 mM. […] The Mnova 7.0 (Mestrelab Research) was used in data analysis.

[5] = SPR, 50 mM HEPES pH 8.8, 0.005% Tween-20, 0.01% PF-127, no other reducing agent

| direct binding of reducing agent by SPR [1] | direct binding of reducing agent by SPR [2] | dissociation at a fast rate (kd), time ([1]; SPR, protein ligand) | Kd (R0RBR Domain RT) | Kd [1, 5] | affinity (KD) of reducing agent [1, 5] | Rmax ([1]; SPR, same run as the KD of DTT) | binding activity % Rmax ([1]; SPR, same run as the KD of DTT) | dissociation half-life ([1]; calculated from the dissociation rate kd) | DTT binding in STD spectrum (FL-FLAG Parkin [4]) | Compound | improvement of Parkin S5a ubiquitination activity (FL-FLAG Parkin [3]) |
| --- | --- | --- | --- | --- | --- | --- | --- | --- | --- | --- | --- |
|  |  | 30 s | 7.1 µM |  |  |  |  |  |  | UbcH7: Ubiquitin conjugating enzyme E2, non-tagged, purified in house |  |
| did not exhibit any binding | did not exhibit any binding |  |  |  |  |  |  |  |  | OCCS [BME, β-mercaptoethanol] | up to 2.5 fold |
| showed binding | showed binding |  |  | 1.4 µM | low micro-molar affinity | 34 RU | 47 % Rmax | 28.95 min | binding was evident | O[C@@H](CS)[C@@H](O)CS (racemic) [DTT, Dithiothreitol] |  |

| Compound | direct binding of reducing agent by SPR [1] | direct binding of reducing agent by SPR [2] | dissociation at a fast rate (kd), time ([1]; SPR, protein ligand) | Kd (R0RBR Domain RT) | Kd [1, 5] | affinity (KD) of reducing agent [1, 5] | Rmax ([1]; SPR, same run as the KD of DTT) | binding activity % Rmax ([1]; SPR, same run as the KD of DTT) | dissociation half-life ([1]; calculated from the dissociation rate kd) | DTT binding in STD spectrum (FL-FLAG Parkin [4]) | improvement of Parkin S5a ubiquitination activity (FL-FLAG Parkin [3]) |
| --- | --- | --- | --- | --- | --- | --- | --- | --- | --- | --- | --- |
| O=C(O)CCP(CCC(=O)O)CCC(=O)O [TCEP] | did not exhibit any binding | did not exhibit any binding |  |  |  |  |  |  |  |  | up to 2.5 fold |
